Literature values, collected in US10149828B2, “Oxybutynin transdermal therapeutic system combination” (priority 2015, dated 2018).

What was measured:
[1] = administered orally to mice
[2] = [14C] oxybutynin, transdermal, rats
[3] = compared to placebo over six months; pivotal clinical trials
[4] = open-label, titrated to 6 mg twice daily, 26 weeks

Structure (SMILES): CCN(CC)CC#CCOC(=O)C(O)(c1ccccc1)C1CCCCC1 (stereo not drawn) [oxybutynin, 4-diethylaminobut-2-ynyl 2-cyclohexyl-2-hydroxy-2-phenylethanoate]
- crossing of the Blood-Brain-Barrier [1]: has been shown to cross the Blood-Brain-Barrier
- radiolabel in the brain [2]: presence of radiolabel in the brain

Structure (SMILES): CCN(C)C(=O)Oc1cccc([C@H](C)N(C)C)c1 [rivastigmine, (S)-N-Ethyl-N-methyl-3-[1-(dimethylamino)ethyl]-phenyl carbamate]
- improvement on the 30-point Mini-Mental Status Examination (MMSE) [3]: 1-1.5 point
- improvement on the 70-point cognitive subscale of the Alzheimer's Disease Assessment Scale (ADAS-Cog) [3]: ~2.8 point
- cognitive functions in PD patients with dementia [4]: may improve
- motor function in PD patients with dementia [4]: no worsening
